Our source for the IC50 values is US10023570B2 (Array BioPharma, Inc., priority 2015, dated 2018).

Broadly, the IC50 is the midpoint of a concentration-inhibition curve. Low readings indicate greater potency in that assay, high ones weaker potency in that assay.

Molecules are shown by their SMILES. Structures can show the parent of a compound that is named as a salt.

This assay concerns the target human KDR protein in HEK-293 cells (Homo sapiens (Human), UniProt P35968). Nature of the assay: KDR Cell Assay (phospho-KDR in HEK-293 cells expressing inducible KDR). The class given is cell-based. The following applies: pKDR Cell HEK 10% FBS IC50, HEK-293 cells expressing inducible KDR, VEGF stimulated, 10% FBS. The gist of the method: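 HEK-293 cells with inducible human KDR were treated with compound for 1 h in DMEM (0.25% DMSO final), then lysed. Phospho-KDR was quantified by Meso Scale immunoassay, expressed as percent of control, and IC50 taken where a 4-parameter logistic fit crossed 50 POC.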

Sequence of human KDR protein in HEK-293 cells (P35968 20-1356): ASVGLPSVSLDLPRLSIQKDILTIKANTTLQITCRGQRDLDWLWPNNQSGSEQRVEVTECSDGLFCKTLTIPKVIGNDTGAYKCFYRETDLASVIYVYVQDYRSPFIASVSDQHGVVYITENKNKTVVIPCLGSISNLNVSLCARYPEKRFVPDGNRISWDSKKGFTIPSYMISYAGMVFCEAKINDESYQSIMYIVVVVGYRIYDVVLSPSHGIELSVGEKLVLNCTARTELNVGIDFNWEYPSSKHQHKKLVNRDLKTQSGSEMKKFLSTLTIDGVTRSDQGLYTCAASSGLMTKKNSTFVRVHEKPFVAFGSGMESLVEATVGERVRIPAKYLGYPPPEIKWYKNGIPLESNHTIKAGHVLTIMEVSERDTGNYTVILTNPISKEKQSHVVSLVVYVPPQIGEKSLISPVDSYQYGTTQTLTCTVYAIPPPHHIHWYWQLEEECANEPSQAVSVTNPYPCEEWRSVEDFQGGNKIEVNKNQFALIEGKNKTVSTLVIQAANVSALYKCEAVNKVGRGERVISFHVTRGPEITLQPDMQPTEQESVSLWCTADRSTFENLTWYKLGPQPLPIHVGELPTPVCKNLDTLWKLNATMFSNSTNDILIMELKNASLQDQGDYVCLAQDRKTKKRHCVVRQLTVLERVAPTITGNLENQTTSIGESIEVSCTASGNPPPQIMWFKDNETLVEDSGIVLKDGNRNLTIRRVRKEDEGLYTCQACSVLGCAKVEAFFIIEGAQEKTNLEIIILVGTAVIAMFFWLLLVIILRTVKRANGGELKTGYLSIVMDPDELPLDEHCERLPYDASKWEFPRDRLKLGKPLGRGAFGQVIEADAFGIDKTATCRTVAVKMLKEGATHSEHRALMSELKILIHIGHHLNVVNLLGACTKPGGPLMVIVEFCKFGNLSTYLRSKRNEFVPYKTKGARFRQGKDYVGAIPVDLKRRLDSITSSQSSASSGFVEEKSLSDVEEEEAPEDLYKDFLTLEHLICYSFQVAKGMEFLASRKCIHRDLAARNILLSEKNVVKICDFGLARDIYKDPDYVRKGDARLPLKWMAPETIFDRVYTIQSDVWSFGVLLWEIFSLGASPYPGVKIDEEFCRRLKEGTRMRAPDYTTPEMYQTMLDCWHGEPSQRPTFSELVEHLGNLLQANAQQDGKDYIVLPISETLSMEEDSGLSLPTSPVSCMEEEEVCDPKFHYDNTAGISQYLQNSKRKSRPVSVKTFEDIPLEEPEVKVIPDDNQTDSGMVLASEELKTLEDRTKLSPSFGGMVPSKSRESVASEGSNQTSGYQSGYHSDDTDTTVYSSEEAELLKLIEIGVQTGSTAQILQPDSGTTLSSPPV

Consider `Cn1cc(-c2cc(-c3ccc(N4CCN(C[C@@H](O)c5ccccc5)CC4)nc3)c3c(C#N)cnn3c2)cn1` [Example 162, (S)-4-(6-(4-(2-hydroxy-2-phenylethyl)piperazin-1-yl)pyridin-3-yl)-6-(1-methyl-1H-pyrazol-4-yl)pyrazolo[1,5-a]pyridine-3-carbonitrile], for which 42 nM corresponded to half-maximal inhibition (IC50).

In turn, `Cn1cc(-c2cc(-c3ccc(N4CCN([C@@H]5CCC[C@H]5O)CC4)nc3)c3c(C#N)cnn3c2)cn1` [Example 163, 4-(6-(4-((1r,2r)-2-hydroxycyclopentyl)piperazin-1-yl)pyridin-3-yl)-6-(1-methyl-1H-pyrazol-4-yl)pyrazolo[1,5-a]pyridine-3-carbonitrile] showed an IC50 of 991 nM.

In turn, `Cn1cc(-c2cc(-c3ccc(N4CCN(CC(O)c5ccc(F)cc5)CC4)nc3)c3c(C#N)cnn3c2)cn1` (centres unmarked) [Example 164, 4-(6-(4-(2-(4-fluorophenyl)-2-hydroxyethyl)piperazin-1-yl)pyridin-3-yl)-6-(1-methyl-1H-pyrazol-4-yl)pyrazolo[1,5-a]pyridine-3-carbonitrile] registered an IC50 of 73.6 nM.

`Cn1cc(-c2cc(-c3ccc(N4CCN(C(=O)OC(C)(C)C)C5(CC5)C4)nc3)c3c(C#N)cnn3c2)cn1` [Example 166, tert-butyl 7-(5-(3-cyano-6-(1-methyl-1H-pyrazol-4-yl)pyrazolo[1,5-a]pyridin-4-yl)pyridin-2-yl)-4,7-diazaspiro[2.5]octane-4-carboxylate] showed an IC50 of 1990 nM.

Consider `Cn1cc(-c2cc(-c3ccc(N4CCNC5(CC5)C4)nc3)c3c(C#N)cnn3c2)cn1` [Example 167, 4-(6-(4,7-diazaspiro[2.5]octan-7-yl)pyridin-3-yl)-6-(1-methyl-1H-pyrazol-4-yl)pyrazolo[1,5-a]pyridine-3-carbonitrile dihydrochloride], for which the IC50 came out at 780 nM.

As for `Cn1cc(-c2cc(-c3ccc(N4CCN(C(=O)CC(C)(C)O)C5(CC5)C4)nc3)c3c(C#N)cnn3c2)cn1` [Example 168, 4-(6-(4-(3-hydroxy-3-methylbutanoyl)-4,7-diazaspiro[2.5]octan-7-yl)pyridin-3-yl)-6-(1-methyl-1H-pyrazol-4-yl)pyrazolo[1,5-a]pyridine-3-carbonitrile], it took 1090 nM to reach half-maximal inhibition (IC50).

Compound `Cn1cc(-c2cc(-c3ccc(N4CCN(C(=O)CC(C)(C)C)C5(CC5)C4)nc3)c3c(C#N)cnn3c2)cn1` [Example 169, 4-(6-(4-(3,3-dimethylbutanoyl)-4,7-diazaspiro[2.5]octan-7-yl)pyridin-3-yl)-6-(1-methyl-1H-pyrazol-4-yl)pyrazolo[1,5-a]pyridine-3-carbonitrile] showed an IC50 of 1440 nM.

As to `Cn1cc(-c2cc(-c3ccc(N4CC5CCC(C4)N5C(=O)OC(C)(C)C)nc3)c3c(C#N)cnn3c2)cn1` [Example 173, tert-butyl 3-(5-(3-cyano-6-(1-methyl-1H-pyrazol-4-yl)pyrazolo[1,5-a]pyridin-4-yl)pyridin-2-yl)-3,8-diazabicyclo[3.2.1]octane-8-carboxylate], the IC50 turned out to be 1270 nM.

On to `Cn1cc(-c2cc(-c3ccc(N4CC5CCC(C4)N5)nc3)c3c(C#N)cnn3c2)cn1` [Example 174, 4-(6-(3,8-diazabicyclo[3.2.1]octan-3-yl)pyridin-3-yl)-6-(1-methyl-1H-pyrazol-4-yl)pyrazolo[1,5-a]pyridine-3-carbonitrile dihydrochloride], for which half-maximal inhibition (IC50) was put at 1220 nM.

`Cn1cc(-c2cc(-c3ccc(N4CCC(NC(=O)[C@H]5CCCO5)CC4)nc3)c3c(C#N)cnn3c2)cn1` [Example 178, (R)—N-(1-(5-(3-cyano-6-(1-methyl-1H-pyrazol-4-yl)pyrazolo[1,5-a]pyridin-4-yl)pyridin-2-yl)piperidin-4-yl)tetrahydrofuran-2-carboxamide]: it took 426 nM to reach half-maximal inhibition (IC50).

In the case of `Cn1cc(-c2cc(-c3ccc(N4CCC(NC(=O)[C@@H]5CCCO5)CC4)nc3)c3c(C#N)cnn3c2)cn1` [Example 182, (5)-N-(1-(5-(3-cyano-6-(1-methyl-1H-pyrazol-4-yl)pyrazolo[1,5-a]pyridin-4-yl)pyridin-2-yl)piperidin-4-yl)tetrahydrofuran-2-carboxamide], the half-inhibitory concentration (IC50) turned out to be 563 nM.

`Cn1cc(-c2cc(-c3ccc(N4CCC(NC(=O)c5ccccc5)CC4)nc3)c3c(C#N)cnn3c2)cn1` [Example 184, N-(1-(5-(3-cyano-6-(1-methyl-1H-pyrazol-4-yl)pyrazolo[1,5-a]pyridin-4-yl)pyridin-2-yl)piperidin-4-yl)benzamide] displayed an IC50 of 75.2 nM.

For the compound `Cn1cc(-c2cc(-c3ccc(N4CCC(N5CCCC5=O)CC4)nc3)c3c(C#N)cnn3c2)cn1` [Example 189, 6-(1-methyl-1H-pyrazol-4-yl)-4-(6-(4-(2-oxopyrrolidin-1-yl)piperidin-1-yl)pyridin-3-yl)pyrazolo[1,5-a]pyridine-3-carbonitrile], the IC50 is 255 nM.

Compound `Cn1cc(-c2cc(-c3ccc(N4CCC(N5CC[C@H](O)C5=O)CC4)nc3)c3c(C#N)cnn3c2)cn1` [Example 190, (S)-4-(6-(4-(3-hydroxy-2-oxopyrrolidin-1-yl)piperidin-1-yl)pyridin-3-yl)-6-(1-methyl-1H-pyrazol-4-yl)pyrazolo[1,5-a]pyridine-3-carbonitrile] registered an IC50 of 277 nM.

`Cn1cc(-c2cc(-c3ccc(N4CCC(N5CCOC5=O)CC4)nc3)c3c(C#N)cnn3c2)cn1` [Example 191, 6-(1-methyl-1H-pyrazol-4-yl)-4-(6-(4-(2-oxooxazolidin-3-yl)piperidin-1-yl)pyridin-3-yl)pyrazolo[1,5-a]pyridine-3-carbonitrile]: the IC50 came out at 21.8 nM.

`Cn1cc(-c2cc(-c3ccc(N4[C@@H]5CC[C@H]4C[C@H](NC(=O)OC(C)(C)C)C5)nc3)c3c(C#N)cnn3c2)cn1` [Example 192, tert-butyl ((1R,3s,5S)-8-(5-(3-cyano-6-(1-methyl-1H-pyrazol-4-yl)pyrazolo[1,5-a]pyridin-4-yl)pyridin-2-yl)-8-azabicyclo[3.2.1]octan-3-yl)carbamate] showed an IC50 of 932 nM.

`Cn1cc(-c2cc(-c3ccc(N4[C@@H]5CC[C@H]4C[C@@H](NC(=O)OC(C)(C)C)C5)nc3)c3c(C#N)cnn3c2)cn1` [Example 194, tert-butyl ((1R,3r,5S)-8-(5-(3-cyano-6-(1-methyl-1H-pyrazol-4-yl)pyrazolo[1,5-a]pyridin-4-yl)pyridin-2-yl)-8-azabicyclo[3.2.1]octan-3-yl)carbamate]: the IC50 is 242 nM.

In turn, `Cn1cc(-c2cc(-c3ccc(N4[C@@H]5CC[C@H]4C[C@@H](N)C5)nc3)c3c(C#N)cnn3c2)cn1` [Example 195, 4-(6-((1R,3r,5S)-3-amino-8-azabicyclo[3.2.1]octan-8-yl)pyridin-3-yl)-6-(1-methyl-1H-pyrazol-4-yl)pyrazolo[1,5-a]pyridine-3-carbonitrile dihydrochloride] showed an IC50 of 247 nM.

Take `Cn1cc(-c2cc(-c3ccc(N4[C@@H]5CC[C@H]4C[C@@H](O)C5)nc3)c3c(C#N)cnn3c2)cn1` [Example 199, 4-(6-((1R,3r,5S)-3-hydroxy-8-azabicyclo[3.2.1]octan-8-yl)pyridin-3-yl)-6-(1-methyl-1H-pyrazol-4-yl)pyrazolo[1,5-a]pyridine-3-carbonitrile]: 565 nM corresponded to half-maximal inhibition (IC50).

With `CO[C@H]1C[C@H]2CC[C@@H](C1)N2c1ccc(-c2cc(-c3cnn(C)c3)cn3ncc(C#N)c23)cn1` [Example 200, 4-(6-((1R,3r,5S)-3-methoxy-8-azabicyclo[3.2.1]octan-8-yl)pyridin-3-yl)-6-(1-methyl-1H-pyrazol-4-yl)pyrazolo[1,5-a]pyridine-3-carbonitrile], the IC50 is 463 nM.

`Cn1cc(-c2cc(-c3ccc(N4CCC5(CCN(C(=O)OC(C)(C)C)C5)CC4)nc3)c3c(C#N)cnn3c2)cn1` [Example 204, tert-butyl 8-(5-(3-cyano-6-(1-methyl-1H-pyrazol-4-yl)pyrazolo[1,5-a]pyridin-4-yl)pyridin-2-yl)-2,8-diazaspiro[4.5]decane-2-carboxylate] gave an IC50 of 429 nM.

Take `CC(C)[C@@H](O)C(=O)N1CCC2(CCN(c3ccc(-c4cc(-c5cnn(C)c5)cn5ncc(C#N)c45)cn3)CC2)C1` [Example 206, (R)-4-(6-(2-(2-hydroxy-3-methylbutanoyl)-2,8-diazaspiro[4.5]decan-8-yl)pyridin-3-yl)-6-(1-methyl-1H-pyrazol-4-yl)pyrazolo[1,5-a]pyridine-3-carbonitrile]: the midpoint of inhibition, the IC50, lay at 1200 nM.

`CC(C)C(=O)N1CCC2(CCN(c3ccc(-c4cc(-c5cnn(C)c5)cn5ncc(C#N)c45)cn3)CC2)C1` [Example 207, 4-(6-(2-isobutyryl-2,8-diazaspiro[4.5]decan-8-yl)pyridin-3-yl)-6-(1-methyl-1H-pyrazol-4-yl)pyrazolo[1,5-a]pyridine-3-carbonitrile] came in with a half-inhibitory concentration (IC50) of 1960 nM.

As to `Cn1cc(-c2cc(-c3ccc(N4CCCC5(CCN(C(=O)OC(C)(C)C)C5)C4)nc3)c3c(C#N)cnn3c2)cn1` (centres unmarked) [Example 208, tert-butyl 7-(5-(3-cyano-6-(1-methyl-1H-pyrazol-4-yl)pyrazolo[1,5-a]pyridin-4-yl)pyridin-2-yl)-2,7-diazaspiro[4.5]decane-2-carboxylate], the IC50 came to 4680 nM.

The compound `Cn1cc(-c2cc(-c3ccc(N4CCC5(CC4)CN(C(=O)OC(C)(C)C)C5)nc3)c3c(C#N)cnn3c2)cn1` [Example 214, tert-butyl 7-(5-(3-cyano-6-(1-methyl-1H-pyrazol-4-yl)pyrazolo[1,5-a]pyridin-4-yl)pyridin-2-yl)-2,7-diazaspiro[3.5]nonane-2-carboxylate] came in with an IC50 of 597 nM.

The compound `CC(C)[C@@H](O)C(=O)N1CC2(CCN(c3ccc(-c4cc(-c5cnn(C)c5)cn5ncc(C#N)c45)cn3)CC2)C1` [Example 216, (R)-4-(6-(2-(2-hydroxy-3-methylbutanoyl)-2,7-diazaspiro[3.5]nonan-7-yl)pyridin-3-yl)-6-(1-methyl-1H-pyrazol-4-yl)pyrazolo[1,5-a]pyridine-3-carbonitrile] yielded an IC50 of 574 nM.
